Data from PubChem BioAssay (NCI).
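Exposure lasted 48 hours, with cells grown in 96-well plates and compounds tested at five concentrations. At the GI50, growth is halved. TGI denotes the concentration required for complete inhibition of growth.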

Experiments:
Assay in all cases: inhibition of tumour cell growth, NCI panel, 48 h
OVCAR-3 ovarian = test system: OVCAR-3 ovarian
HT29 colon = test system: HT29 colon
CAKI-1 renal = test system: CAKI-1 renal
RXF 393 renal = test system: RXF 393 renal
SF-295 CNS = test system: SF-295 CNS
UACC-257 melanoma = test system: UACC-257 melanoma
UACC-62 melanoma = test system: UACC-62 melanoma
CCRF-CEM leukemia = test system: CCRF-CEM leukemia
T-47D breast = test system: T-47D breast
SNB-19 CNS = test system: SNB-19 CNS

CCc1nc(-n2c(-c3ccccc3)nc3ccccc3c2=O)nc(N)c1-c1ccc(Cl)cc1
GI50 (OVCAR-3 ovarian): 0.554 µM | TGI (OVCAR-3 ovarian): 30.7 µM | GI50 (HT29 colon): 6.62 µM | TGI (HT29 colon): > 100 µM | GI50 (CAKI-1 renal): 14.7 µM | TGI (CAKI-1 renal): 41 µM | GI50 (RXF 393 renal): > 100 µM | TGI (RXF 393 renal): > 100 µM | GI50 (SF-295 CNS): 2.26 µM | TGI (SF-295 CNS): 20.2 µM | GI50 (UACC-257 melanoma): 40.3 µM | TGI (UACC-257 melanoma): > 100 µM | GI50 (UACC-62 melanoma): 6.55 µM | TGI (UACC-62 melanoma): > 100 µM | GI50 (CCRF-CEM leukemia): 9.94 µM | TGI (CCRF-CEM leukemia): > 100 µM | GI50 (T-47D breast): 27 µM | TGI (T-47D breast): 81 µM | GI50 (SNB-19 CNS): 6.46 µM | TGI (SNB-19 CNS): > 100 µM

CO[C@H](C(=O)O)[C@@H]1Cc2cc3cc(OC4CC(OC5CC(O)C(O)C(C)O5)C(O)C(C)O4)c(C)c(O)c3c(O)c2C(=O)[C@H]1OC1CC(OC2CC(OC3CC(C)(O)C(O)C(C)O3)C(O)C(C)O2)C(O)C(C)O1 (some centres undefined)
GI50 (OVCAR-3 ovarian): 0.28 µM | TGI (OVCAR-3 ovarian): 2.04 µM | GI50 (HT29 colon): 0.305 µM | TGI (HT29 colon): > 32.5 µM | GI50 (CAKI-1 renal): 0.598 µM | TGI (CAKI-1 renal): > 32.5 µM | GI50 (RXF 393 renal): 0.101 µM | TGI (RXF 393 renal): 0.436 µM | GI50 (SF-295 CNS): 0.167 µM | TGI (SF-295 CNS): > 32.5 µM | GI50 (UACC-257 melanoma): 0.38 µM | TGI (UACC-257 melanoma): > 32.5 µM | GI50 (UACC-62 melanoma): 0.108 µM | TGI (UACC-62 melanoma): 0.496 µM | GI50 (CCRF-CEM leukemia): 0.33 µM | TGI (CCRF-CEM leukemia): > 32.5 µM | GI50 (T-47D breast): 0.302 µM | TGI (T-47D breast): > 32.5 µM | GI50 (SNB-19 CNS): 0.201 µM | TGI (SNB-19 CNS): > 32.5 µM

Cc1cc(O)c(C(c2ccncc2)c2c(O)cc(C)[nH]c2=O)c(=O)[nH]1
TGI (OVCAR-3 ovarian): > 100 µM | TGI (HT29 colon): > 100 µM | TGI (CAKI-1 renal): > 100 µM | TGI (RXF 393 renal): > 100 µM | TGI (SF-295 CNS): > 100 µM | TGI (UACC-257 melanoma): > 100 µM | TGI (UACC-62 melanoma): > 100 µM | TGI (CCRF-CEM leukemia): > 100 µM | TGI (T-47D breast): > 100 µM | TGI (SNB-19 CNS): > 100 µM

CC(C)(C)C(=O)OCc1nc2cc3c(cc2c(=O)[nH]1)CCC3=O
GI50 (OVCAR-3 ovarian): > 100 µM | TGI (OVCAR-3 ovarian): > 100 µM | GI50 (HT29 colon): > 100 µM | TGI (HT29 colon): > 100 µM | GI50 (CAKI-1 renal): > 100 µM | TGI (CAKI-1 renal): > 100 µM | GI50 (RXF 393 renal): > 100 µM | TGI (RXF 393 renal): > 100 µM | GI50 (SF-295 CNS): > 100 µM | TGI (SF-295 CNS): > 100 µM | GI50 (UACC-257 melanoma): > 100 µM | TGI (UACC-257 melanoma): > 100 µM | GI50 (UACC-62 melanoma): > 100 µM | TGI (UACC-62 melanoma): > 100 µM | GI50 (CCRF-CEM leukemia): > 100 µM | TGI (CCRF-CEM leukemia): > 100 µM | GI50 (T-47D breast): > 100 µM | TGI (T-47D breast): > 100 µM | GI50 (SNB-19 CNS): > 100 µM | TGI (SNB-19 CNS): > 100 µM

CC[C@H](NC(=O)[C@H](CS(=O)(=O)CC1CC1)N[C@@H](c1ccc(F)cc1)C(F)(F)F)C(=O)C(=O)NC1CC1
GI50 (OVCAR-3 ovarian): > 100 µM | TGI (OVCAR-3 ovarian): > 100 µM | GI50 (HT29 colon): > 100 µM | TGI (HT29 colon): > 100 µM | GI50 (CAKI-1 renal): > 100 µM | TGI (CAKI-1 renal): > 100 µM | GI50 (RXF 393 renal): > 100 µM | TGI (RXF 393 renal): > 100 µM | GI50 (SF-295 CNS): > 100 µM | TGI (SF-295 CNS): > 100 µM | GI50 (UACC-257 melanoma): > 100 µM | TGI (UACC-257 melanoma): > 100 µM | GI50 (UACC-62 melanoma): > 100 µM | TGI (UACC-62 melanoma): > 100 µM | GI50 (CCRF-CEM leukemia): > 100 µM | TGI (CCRF-CEM leukemia): > 100 µM | GI50 (T-47D breast): > 100 µM | TGI (T-47D breast): > 100 µM | GI50 (SNB-19 CNS): > 100 µM | TGI (SNB-19 CNS): > 100 µM

CCCCCCNC(=O)Oc1ccc(/C(=C(\C)c2ccccc2)c2ccc(OCCN(CC)CC)cc2)cc1
GI50 (OVCAR-3 ovarian): 4.73 µM | TGI (OVCAR-3 ovarian): 11.6 µM | GI50 (HT29 colon): 1.17 µM | TGI (HT29 colon): 2.9 µM | GI50 (CAKI-1 renal): 2.74 µM | TGI (CAKI-1 renal): 8.92 µM | GI50 (RXF 393 renal): 2.35 µM | TGI (RXF 393 renal): 8.16 µM | GI50 (SF-295 CNS): 2.11 µM | TGI (SF-295 CNS): 7.38 µM | GI50 (UACC-257 melanoma): 1.21 µM | TGI (UACC-257 melanoma): 3.17 µM | GI50 (UACC-62 melanoma): 2.05 µM | TGI (UACC-62 melanoma): 7.4 µM | GI50 (CCRF-CEM leukemia): 2.22 µM | TGI (CCRF-CEM leukemia): 11.6 µM | GI50 (T-47D breast): 1.07 µM | TGI (T-47D breast): 8.17 µM | GI50 (SNB-19 CNS): 4.89 µM | TGI (SNB-19 CNS): 11.1 µM

CCOC(=O)c1ccccc1-c1c2ccc(=[N+](C)C)cc-2oc2cc(N(C)C)ccc12
GI50 (OVCAR-3 ovarian): 0.209 µM | TGI (OVCAR-3 ovarian): 13.4 µM | GI50 (HT29 colon): 0.211 µM | GI50 (CAKI-1 renal): 0.691 µM | TGI (CAKI-1 renal): 4.64 µM | GI50 (RXF 393 renal): 0.692 µM | TGI (RXF 393 renal): 7.58 µM | GI50 (SF-295 CNS): 0.278 µM | TGI (SF-295 CNS): 1.62 µM | GI50 (UACC-257 melanoma): 0.198 µM | TGI (UACC-257 melanoma): 7.58 µM | GI50 (UACC-62 melanoma): 0.332 µM | TGI (UACC-62 melanoma): 4.12 µM | GI50 (CCRF-CEM leukemia): 0.42 µM | TGI (CCRF-CEM leukemia): > 45.9 µM | GI50 (T-47D breast): 0.104 µM | TGI (T-47D breast): 19.8 µM | GI50 (SNB-19 CNS): 0.103 µM | TGI (SNB-19 CNS): 16.7 µM
